This note sets out measurements from article PMC10004634 (PLOS ONE, 2023).

Where two headings read alike, the source gives them in different places.

Targets include BTK (Homo sapiens, UniProt Q06187); LYN (Homo sapiens, UniProt P07948); ACVR1B (Homo sapiens, UniProt P36896); CHEK1 (Homo sapiens, UniProt O14757); CHEK2 (Homo sapiens, UniProt O96017); CIT (Homo sapiens, UniProt O14578); CLK1 (Homo sapiens, UniProt P49759); CSNK1D (Homo sapiens, UniProt P48730); MAST1 (Homo sapiens, UniProt Q9Y2H9); MET(Y1235D) (Homo sapiens, UniProt P08581, Y1235D); PIK3CA(H1047L) (Homo sapiens, UniProt P42336, H1047L); PKMYT1 (Homo sapiens, UniProt Q99640); PRKCE (Homo sapiens, UniProt Q02156); SRPK1 (Homo sapiens, UniProt Q96SB4); TESK1 (Homo sapiens, UniProt Q15569); MERTK (Homo sapiens, UniProt Q12866).

Holding throughout (test): biochemical
What all share (set-up): KINOMEscan scanMAX competition binding, DNA-tagged kinases, qPCR read-out, percent control at 300 nM

Test [1] addresses T1, RSK1(Kin.Dom.2-C-terminal) (Homo sapiens, UniProt Q15418).
T1 construct: gene RPS6KA1; Kin.Dom.2-C-terminal

The next test concerns the target T2, CTK (Homo sapiens, UniProt P42679).
T2 construct: gene MATK

For a further test, the target named is T3, ERK1 (Homo sapiens, UniProt P27361).
T3 construct: gene MAPK3

Test [2] concerns the target T4, RPS6KA4(Kin.Dom.2-C-terminal) (Homo sapiens, UniProt O75676).
T4 construct: Kin.Dom.2-C-terminal

Test [3] concerns the target T5, RSK2(Kin.Dom.1-N-terminal) (Homo sapiens, UniProt P51812).
T5 construct: gene RPS6KA3; Kin.Dom.1-N-terminal

In the next test the target is T6, MST2 (Homo sapiens, UniProt Q13188).
T6 construct: gene STK3

Another test has as its target T7, YSK1 (Homo sapiens, UniProt O00506).
T7 construct: gene STK25

Setting [4] is: read-out: Percent control / Tirabrutinib.
Where [5] appears, read: read-out: Percent control / Acalabrutinib.
The mark [6] stands for this setting: read-out: Percent control / Ibrutinib.
Setting [7] is: read-out: Percent control / Zanubrutinib.

MET(Y1235D), sequence (P08581 whole entry Y1235D): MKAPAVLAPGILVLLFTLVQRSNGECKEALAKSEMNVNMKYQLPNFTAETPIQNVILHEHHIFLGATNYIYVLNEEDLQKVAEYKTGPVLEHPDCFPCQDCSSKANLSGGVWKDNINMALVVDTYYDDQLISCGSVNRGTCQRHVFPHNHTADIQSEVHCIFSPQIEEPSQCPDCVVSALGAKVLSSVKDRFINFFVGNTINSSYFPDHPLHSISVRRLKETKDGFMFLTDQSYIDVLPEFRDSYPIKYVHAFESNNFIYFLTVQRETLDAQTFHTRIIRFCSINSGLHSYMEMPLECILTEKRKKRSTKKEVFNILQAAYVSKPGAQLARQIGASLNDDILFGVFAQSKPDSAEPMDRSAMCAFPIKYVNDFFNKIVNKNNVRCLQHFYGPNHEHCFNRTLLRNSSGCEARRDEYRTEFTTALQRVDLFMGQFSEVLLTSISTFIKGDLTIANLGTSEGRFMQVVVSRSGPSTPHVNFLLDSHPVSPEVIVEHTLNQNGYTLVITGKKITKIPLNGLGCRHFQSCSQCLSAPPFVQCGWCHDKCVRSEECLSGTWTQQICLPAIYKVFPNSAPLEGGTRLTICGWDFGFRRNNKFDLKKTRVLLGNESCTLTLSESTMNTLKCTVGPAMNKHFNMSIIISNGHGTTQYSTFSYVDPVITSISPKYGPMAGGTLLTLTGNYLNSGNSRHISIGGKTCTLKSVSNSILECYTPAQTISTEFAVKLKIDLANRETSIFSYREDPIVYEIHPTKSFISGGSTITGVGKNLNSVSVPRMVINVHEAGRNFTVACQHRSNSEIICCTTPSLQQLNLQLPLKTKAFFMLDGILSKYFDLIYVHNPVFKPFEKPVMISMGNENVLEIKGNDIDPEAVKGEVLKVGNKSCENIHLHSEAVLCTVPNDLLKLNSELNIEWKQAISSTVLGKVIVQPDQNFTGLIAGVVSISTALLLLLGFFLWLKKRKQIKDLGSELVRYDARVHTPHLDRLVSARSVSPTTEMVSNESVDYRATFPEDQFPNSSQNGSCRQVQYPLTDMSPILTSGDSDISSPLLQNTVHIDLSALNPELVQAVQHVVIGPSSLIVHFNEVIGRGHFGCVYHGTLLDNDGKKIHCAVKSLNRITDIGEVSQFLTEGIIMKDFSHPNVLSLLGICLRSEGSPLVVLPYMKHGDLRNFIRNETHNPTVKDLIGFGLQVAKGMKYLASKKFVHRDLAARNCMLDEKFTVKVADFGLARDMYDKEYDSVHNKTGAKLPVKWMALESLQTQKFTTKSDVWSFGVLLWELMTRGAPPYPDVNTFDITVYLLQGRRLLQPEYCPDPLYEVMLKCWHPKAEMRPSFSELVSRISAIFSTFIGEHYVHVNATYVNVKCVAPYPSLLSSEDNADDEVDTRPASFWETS
ACVR1B, sequence (P36896 whole entry): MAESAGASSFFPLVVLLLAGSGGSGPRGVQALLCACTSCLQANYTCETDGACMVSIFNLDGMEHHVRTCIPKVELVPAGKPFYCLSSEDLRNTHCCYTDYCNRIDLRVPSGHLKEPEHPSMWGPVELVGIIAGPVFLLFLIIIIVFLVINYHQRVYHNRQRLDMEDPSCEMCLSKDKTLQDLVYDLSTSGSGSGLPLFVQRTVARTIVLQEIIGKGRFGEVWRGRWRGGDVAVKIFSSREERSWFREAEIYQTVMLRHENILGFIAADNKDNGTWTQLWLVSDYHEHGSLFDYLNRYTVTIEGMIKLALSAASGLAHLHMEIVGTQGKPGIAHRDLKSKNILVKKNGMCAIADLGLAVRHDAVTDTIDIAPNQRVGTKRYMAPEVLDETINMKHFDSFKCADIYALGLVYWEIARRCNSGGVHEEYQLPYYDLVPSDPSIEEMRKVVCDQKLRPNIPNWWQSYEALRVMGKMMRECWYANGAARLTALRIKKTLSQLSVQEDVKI
TESK1, sequence (Q15569 whole entry): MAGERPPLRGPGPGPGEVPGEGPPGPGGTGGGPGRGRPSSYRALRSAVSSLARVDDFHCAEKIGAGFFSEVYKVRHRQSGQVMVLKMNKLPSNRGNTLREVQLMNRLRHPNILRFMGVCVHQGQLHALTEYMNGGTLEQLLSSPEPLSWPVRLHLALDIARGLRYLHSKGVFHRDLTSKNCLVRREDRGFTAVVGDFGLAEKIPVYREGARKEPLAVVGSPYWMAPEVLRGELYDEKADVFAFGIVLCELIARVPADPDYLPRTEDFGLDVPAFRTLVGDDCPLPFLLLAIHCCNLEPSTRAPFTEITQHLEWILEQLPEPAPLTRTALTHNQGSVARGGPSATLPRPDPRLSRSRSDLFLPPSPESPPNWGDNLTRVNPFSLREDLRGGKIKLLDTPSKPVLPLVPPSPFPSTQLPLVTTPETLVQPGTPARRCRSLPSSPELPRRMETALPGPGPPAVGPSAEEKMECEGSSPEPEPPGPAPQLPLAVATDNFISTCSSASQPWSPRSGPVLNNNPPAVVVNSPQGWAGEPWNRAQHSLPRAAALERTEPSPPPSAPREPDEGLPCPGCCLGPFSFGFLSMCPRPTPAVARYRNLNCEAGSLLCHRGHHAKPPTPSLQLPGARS
LYN, sequence (P07948 whole entry): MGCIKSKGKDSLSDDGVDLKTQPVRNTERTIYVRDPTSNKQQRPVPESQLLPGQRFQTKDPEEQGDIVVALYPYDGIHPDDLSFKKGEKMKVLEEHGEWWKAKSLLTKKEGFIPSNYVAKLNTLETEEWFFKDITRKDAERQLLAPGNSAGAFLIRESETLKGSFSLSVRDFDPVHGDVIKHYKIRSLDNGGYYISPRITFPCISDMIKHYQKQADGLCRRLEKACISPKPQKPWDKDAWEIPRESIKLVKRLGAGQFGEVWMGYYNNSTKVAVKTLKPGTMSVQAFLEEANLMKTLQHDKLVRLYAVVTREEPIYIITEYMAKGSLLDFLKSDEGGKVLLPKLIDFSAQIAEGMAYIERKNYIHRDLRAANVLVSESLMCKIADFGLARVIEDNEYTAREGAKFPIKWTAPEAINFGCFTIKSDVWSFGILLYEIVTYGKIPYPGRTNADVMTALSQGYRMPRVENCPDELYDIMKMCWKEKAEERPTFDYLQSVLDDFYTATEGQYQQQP
CHEK2, sequence (O96017 whole entry): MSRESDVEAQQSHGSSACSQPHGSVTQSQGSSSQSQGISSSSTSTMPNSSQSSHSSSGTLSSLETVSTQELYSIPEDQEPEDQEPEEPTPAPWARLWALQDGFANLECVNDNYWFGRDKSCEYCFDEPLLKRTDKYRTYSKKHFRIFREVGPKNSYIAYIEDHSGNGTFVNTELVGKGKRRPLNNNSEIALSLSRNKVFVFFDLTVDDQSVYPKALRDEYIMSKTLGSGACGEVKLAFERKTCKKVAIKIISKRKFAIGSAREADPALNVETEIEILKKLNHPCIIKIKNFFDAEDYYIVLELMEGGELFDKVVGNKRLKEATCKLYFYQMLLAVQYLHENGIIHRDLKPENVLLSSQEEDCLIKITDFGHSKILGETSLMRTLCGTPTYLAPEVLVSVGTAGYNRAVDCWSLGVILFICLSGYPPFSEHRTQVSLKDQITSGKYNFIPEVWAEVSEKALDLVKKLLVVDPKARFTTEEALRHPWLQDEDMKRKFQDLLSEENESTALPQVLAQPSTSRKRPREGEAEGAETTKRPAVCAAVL
T5 sequence (P51812 whole entry): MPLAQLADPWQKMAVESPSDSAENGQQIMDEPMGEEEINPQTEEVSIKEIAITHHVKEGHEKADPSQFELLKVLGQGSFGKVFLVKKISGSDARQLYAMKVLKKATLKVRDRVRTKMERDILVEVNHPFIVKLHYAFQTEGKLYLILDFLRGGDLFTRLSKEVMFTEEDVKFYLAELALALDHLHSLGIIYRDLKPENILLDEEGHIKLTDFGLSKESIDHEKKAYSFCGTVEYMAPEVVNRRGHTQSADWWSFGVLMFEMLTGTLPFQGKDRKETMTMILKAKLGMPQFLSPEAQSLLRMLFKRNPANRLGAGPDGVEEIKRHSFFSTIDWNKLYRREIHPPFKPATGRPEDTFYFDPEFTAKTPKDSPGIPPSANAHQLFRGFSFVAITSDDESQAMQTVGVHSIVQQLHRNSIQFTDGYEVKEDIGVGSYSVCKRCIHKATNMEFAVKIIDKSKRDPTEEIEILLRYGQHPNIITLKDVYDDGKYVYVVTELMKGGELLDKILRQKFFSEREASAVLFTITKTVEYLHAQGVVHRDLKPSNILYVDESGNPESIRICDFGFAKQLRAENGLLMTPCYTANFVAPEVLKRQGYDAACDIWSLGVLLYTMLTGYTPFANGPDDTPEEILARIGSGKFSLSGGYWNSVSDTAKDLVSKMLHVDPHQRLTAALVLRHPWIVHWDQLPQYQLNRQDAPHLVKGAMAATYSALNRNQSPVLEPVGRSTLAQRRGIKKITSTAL
CHEK1, sequence (O14757 whole entry): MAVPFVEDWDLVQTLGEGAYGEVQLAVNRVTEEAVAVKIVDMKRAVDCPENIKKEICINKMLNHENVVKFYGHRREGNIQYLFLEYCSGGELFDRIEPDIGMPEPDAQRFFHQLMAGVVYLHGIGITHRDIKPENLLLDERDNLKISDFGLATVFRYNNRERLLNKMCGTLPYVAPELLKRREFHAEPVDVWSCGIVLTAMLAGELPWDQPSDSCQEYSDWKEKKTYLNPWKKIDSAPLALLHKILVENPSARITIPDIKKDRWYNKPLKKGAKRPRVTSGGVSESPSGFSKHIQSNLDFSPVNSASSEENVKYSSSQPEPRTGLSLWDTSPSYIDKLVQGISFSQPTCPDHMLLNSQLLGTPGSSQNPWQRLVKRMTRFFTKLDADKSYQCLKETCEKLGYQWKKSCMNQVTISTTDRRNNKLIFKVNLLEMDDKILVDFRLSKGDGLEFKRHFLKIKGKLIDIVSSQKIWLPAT

Turning to `CC#CC(=O)N1CC[C@@H](n2c(=O)n(-c3ccc(Oc4ccccc4)cc3)c3c(N)ncnc32)C1` [Tirabrutinib], the figures for the remaining binding at 0.3 µM (at BTK (setting [4]); on LYN (setting [4]); in [1] (setting [4])) were 3%, 76% and 88%, respectively.
Regarding `CC#CC(=O)N1CCC[C@H]1c1nc(-c2ccc(C(=O)Nc3ccccn3)cc2)c2c(N)nccn12` [Acalabrutinib], the remaining binding at 0.3 µM on ACVR1B (setting [5]) was found to be 99%; at BTK (setting [5]) it was 0.3%; on CHEK1 (setting [5]), 88%; on CHEK2 (setting [5]) it was 84%; at CIT (setting [5]), 81%; on CLK1 (setting [5]), 92%. Also, the remaining binding at 0.3 µM amounted to 85% at CSNK1D (setting [5]); 97% on CTK (setting [5]); 92% at ERK1 (setting [5]); 88% at LYN (setting [5]); 87% on MAST1 (setting [5]); 86% on MET(Y1235D) (setting [5]). For the same compound, the remaining binding at 0.3 µM is 90% on PIK3CA(H1047L) (setting [5]); 94% on PKMYT1 (setting [5]); 96% on PRKCE (setting [5]); 96% in test [2] (setting [5]); 84% in [3] (setting [5]); 84% on SRPK1 (setting [5]). Besides, the remaining binding at 0.3 µM at TESK1 (setting [5]) worked out at 79%.
Regarding `C=CC(=O)N1CCC[C@@H](n2nc(-c3ccc(Oc4ccccc4)cc3)c3c(N)ncnc32)C1` [Ibrutinib], the remaining binding at 0.3 µM was found to be 70% on MERTK (setting [6]), 85% at MST2 (setting [6]), 85% at SRPK1 (setting [6]) and 85% on YSK1 (setting [6]).
Turning to `C=CC(=O)N1CCC([C@@H]2CCNc3c(C(N)=O)c(-c4ccc(Oc5ccccc5)cc4)nn32)CC1` [Zanubrutinib], the remaining binding at 0.3 µM at ACVR1B (setting [7]) turned out to be 92%; on CHEK1 (setting [7]) it was 92%; at CHEK2 (setting [7]), 98%; on CIT (setting [7]), 100%; on CLK1 (setting [7]), 90%; at CSNK1D (setting [7]) it was 100%. The remaining binding at 0.3 µM at CTK (setting [7]) worked out at 98%; on ERK1 (setting [7]) it was 87%; at MAST1 (setting [7]) it was 100%; on MERTK (setting [7]), 91%; at MET(Y1235D) (setting [7]), 88%; on MST2 (setting [7]), 100%. For the same compound, the remaining binding at 0.3 µM on PIK3CA(H1047L) (setting [7]) is 100%; on PKMYT1 (setting [7]), 81%; on PRKCE (setting [7]) it was 100%; in [2] (setting [7]) it was 100%; in test [1] (setting [7]), 92%; in test [3] (setting [7]), 82%. Also, the results for the remaining binding at 0.3 µM at TESK1 (setting [7]) and at YSK1 (setting [7]) were 83% and 88%, respectively.
